According to PMC9450956 (Science translational medicine, 2021):

What was measured:
[1] = tested on: SUMO1; experiment: Western and dot blots for SUMO1 in LN229 cells; assay type: cell-based, human; conditions: 72 hours
[2] = tested on: SUMO1 mRNA; experiment: SUMO1 mRNA expression in LN229 cells; assay type: cell-based, human; conditions: LN229 cancer cells
[3] = tested on: SUMO1-CDK6, SUMO1-RanGAP1, and SUMO3-RanGAP1 conjugation; experiment: In vitro sumoylation assay; assay type: biochemical; conditions: CDK6 and RanGap1 as substrates
[4] = tested on: SUMO1; experiment: SUMO1 target engagement in colon cancer PDX mice; assay type: in vivo; conditions: intraperitoneal once per day for 3 days, dose-dependent
[5] = tested on: NSCLC A549 and colon cancer HCT116 xenografts; experiment: Cancer cell line-derived subcutaneous xenografts; assay type: in vivo, mice; conditions: intraperitoneal, once per day for 14 days
[6] = tested on: LN229-derived brain xenografts; experiment: LN229-derived intracranial brain xenografts, survival; assay type: in vivo, mice; conditions: intraperitoneal, once per day for 14 days; Kaplan-Meier
[7] = tested on: human colon, breast carcinoma, and NSCLC PDXs; experiment: Cancer PDX mouse models, tumor progression and survival; assay type: in vivo, mice; conditions: for progression of PDXs: intraperitoneal, once per day for 14 days
[8] = tested on: matched normal lung, colon, breast and brain cells; experiment: Cell viability, matched normal cells; assay type: cell-based, human; conditions: compared to cancer cell lines
[9] = biological target: T1, cellular CAPRIN1 (Homo sapiens, UniProt Q14444); experiment: HB007-biotin pull-down competition with cell lysates, immunoblot; assay type: binding; conditions: free compound added to cell lysates
T1 sequence (Q14444 1-709): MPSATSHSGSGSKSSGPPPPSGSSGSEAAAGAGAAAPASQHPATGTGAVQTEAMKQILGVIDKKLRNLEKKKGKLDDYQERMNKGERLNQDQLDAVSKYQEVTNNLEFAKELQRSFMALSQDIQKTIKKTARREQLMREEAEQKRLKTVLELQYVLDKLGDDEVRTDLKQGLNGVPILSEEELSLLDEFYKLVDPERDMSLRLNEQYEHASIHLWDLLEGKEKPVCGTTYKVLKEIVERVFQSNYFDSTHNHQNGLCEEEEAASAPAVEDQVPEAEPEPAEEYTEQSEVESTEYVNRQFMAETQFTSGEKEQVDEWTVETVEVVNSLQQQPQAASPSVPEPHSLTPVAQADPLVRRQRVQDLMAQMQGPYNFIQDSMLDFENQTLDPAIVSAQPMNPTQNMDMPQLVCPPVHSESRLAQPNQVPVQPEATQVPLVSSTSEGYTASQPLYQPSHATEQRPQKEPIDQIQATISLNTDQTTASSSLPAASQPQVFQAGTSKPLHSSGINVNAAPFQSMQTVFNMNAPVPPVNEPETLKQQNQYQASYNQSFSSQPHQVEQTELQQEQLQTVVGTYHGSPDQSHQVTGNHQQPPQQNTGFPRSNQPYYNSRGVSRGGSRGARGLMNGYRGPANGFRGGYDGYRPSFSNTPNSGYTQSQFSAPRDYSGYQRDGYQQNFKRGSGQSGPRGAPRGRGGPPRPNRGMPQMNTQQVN

[10] = tested on: cytochrome P450s (2C9, 2D6, and 3A4); experiment: CYP inhibition in human liver microsomes; assay type: in vitro ADME; conditions: 10 μM
[11] = tested on: kinases, ion channels, NHRs, enzymes; experiment: LeadProfilingScreen selectivity profiling; assay type: binding, human; conditions: 10 μM
[12] = biological target: human ether-a-go-go–related gene (Homo sapiens, UniProt Q12809); experiment: LeadProfilingScreen selectivity profiling; assay type: binding; conditions: 10 μM
Chain of human ether-a-go-go–related gene (Q12809 whole entry): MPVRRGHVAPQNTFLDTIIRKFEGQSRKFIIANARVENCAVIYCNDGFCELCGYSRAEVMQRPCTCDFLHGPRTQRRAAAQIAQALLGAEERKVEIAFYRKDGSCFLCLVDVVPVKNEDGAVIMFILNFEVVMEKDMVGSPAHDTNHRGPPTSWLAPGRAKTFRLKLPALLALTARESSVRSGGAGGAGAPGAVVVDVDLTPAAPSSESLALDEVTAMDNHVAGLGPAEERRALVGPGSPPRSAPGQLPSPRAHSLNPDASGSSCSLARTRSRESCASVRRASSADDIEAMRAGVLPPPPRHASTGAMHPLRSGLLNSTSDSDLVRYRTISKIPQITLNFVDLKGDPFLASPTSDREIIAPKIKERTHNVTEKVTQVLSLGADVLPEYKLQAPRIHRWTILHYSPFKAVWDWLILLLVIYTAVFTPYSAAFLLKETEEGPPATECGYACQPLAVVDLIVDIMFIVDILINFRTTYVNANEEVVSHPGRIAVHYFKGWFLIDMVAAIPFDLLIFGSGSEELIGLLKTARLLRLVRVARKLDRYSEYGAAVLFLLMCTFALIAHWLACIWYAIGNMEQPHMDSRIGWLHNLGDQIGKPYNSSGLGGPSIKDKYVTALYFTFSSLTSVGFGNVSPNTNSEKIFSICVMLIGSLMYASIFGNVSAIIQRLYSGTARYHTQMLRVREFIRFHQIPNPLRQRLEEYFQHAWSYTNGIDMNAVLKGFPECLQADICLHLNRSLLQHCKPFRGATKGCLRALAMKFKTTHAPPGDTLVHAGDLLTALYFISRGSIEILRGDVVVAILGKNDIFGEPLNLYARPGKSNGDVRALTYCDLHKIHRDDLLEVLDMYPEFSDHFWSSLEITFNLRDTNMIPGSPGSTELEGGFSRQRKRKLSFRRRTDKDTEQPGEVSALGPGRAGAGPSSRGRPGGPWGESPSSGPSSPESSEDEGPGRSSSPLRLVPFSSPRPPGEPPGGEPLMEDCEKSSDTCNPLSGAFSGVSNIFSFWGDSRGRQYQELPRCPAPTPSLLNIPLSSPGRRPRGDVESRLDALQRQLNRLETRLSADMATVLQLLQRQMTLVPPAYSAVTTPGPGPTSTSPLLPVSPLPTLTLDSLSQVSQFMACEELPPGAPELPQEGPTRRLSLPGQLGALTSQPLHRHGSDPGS

[13] = biological target: adenosine A2A (Homo sapiens, UniProt P29274); experiment: LeadProfilingScreen selectivity profiling; assay type: binding; conditions: 10 μM
Chain of adenosine A2A (P29274 whole entry): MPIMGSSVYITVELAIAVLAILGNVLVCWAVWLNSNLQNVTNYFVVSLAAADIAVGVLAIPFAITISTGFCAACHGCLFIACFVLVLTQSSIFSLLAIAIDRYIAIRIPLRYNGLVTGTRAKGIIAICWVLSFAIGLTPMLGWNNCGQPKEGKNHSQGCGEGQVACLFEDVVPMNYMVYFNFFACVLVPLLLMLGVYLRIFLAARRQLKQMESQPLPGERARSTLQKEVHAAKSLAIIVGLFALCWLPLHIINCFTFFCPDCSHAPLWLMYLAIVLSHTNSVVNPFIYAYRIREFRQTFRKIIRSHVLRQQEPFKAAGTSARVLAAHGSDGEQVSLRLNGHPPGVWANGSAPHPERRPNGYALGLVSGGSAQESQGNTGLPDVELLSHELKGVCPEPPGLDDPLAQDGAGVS

[14] = biological target: histamine H2 (Homo sapiens, UniProt P25021); experiment: LeadProfilingScreen selectivity profiling; assay type: binding; conditions: 10 μM
Chain of histamine H2 (P25021 whole entry): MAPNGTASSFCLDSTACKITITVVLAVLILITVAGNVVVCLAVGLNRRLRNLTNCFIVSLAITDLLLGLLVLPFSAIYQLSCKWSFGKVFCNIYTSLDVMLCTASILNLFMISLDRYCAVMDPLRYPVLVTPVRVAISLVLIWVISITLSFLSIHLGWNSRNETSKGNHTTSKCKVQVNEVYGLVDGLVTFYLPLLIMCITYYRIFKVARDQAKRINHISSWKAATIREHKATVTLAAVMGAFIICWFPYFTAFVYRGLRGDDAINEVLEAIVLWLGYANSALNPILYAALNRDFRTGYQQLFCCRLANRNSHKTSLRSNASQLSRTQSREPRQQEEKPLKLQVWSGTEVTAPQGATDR

[15] = biological target: 5-hydroxytryptamine receptor 2B (5-HT2B) (Homo sapiens, UniProt P41595); experiment: LeadProfilingScreen selectivity profiling; assay type: binding; conditions: 10 μM
Chain of 5-hydroxytryptamine receptor 2B (5-HT2B) (P41595 whole entry): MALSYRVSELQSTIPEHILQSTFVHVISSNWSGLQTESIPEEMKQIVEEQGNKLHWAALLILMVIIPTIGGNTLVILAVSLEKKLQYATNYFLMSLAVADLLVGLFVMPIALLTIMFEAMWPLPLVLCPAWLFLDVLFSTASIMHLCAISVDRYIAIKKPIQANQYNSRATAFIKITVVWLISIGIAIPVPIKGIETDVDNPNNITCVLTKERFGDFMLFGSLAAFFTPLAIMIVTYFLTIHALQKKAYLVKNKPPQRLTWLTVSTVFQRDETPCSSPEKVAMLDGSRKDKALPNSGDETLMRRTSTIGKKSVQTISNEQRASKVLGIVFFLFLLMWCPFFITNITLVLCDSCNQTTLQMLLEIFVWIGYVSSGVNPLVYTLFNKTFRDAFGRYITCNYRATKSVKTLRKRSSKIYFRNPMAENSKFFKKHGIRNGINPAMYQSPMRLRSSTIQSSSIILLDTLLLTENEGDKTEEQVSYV

[16] = Microsomal stability; assay type: in vitro ADME, mouse; conditions: 1 μM, 45 min, LC-MS
[17] = Microsomal stability; assay type: in vitro ADME, human; conditions: 1 μM, 45 min, LC-MS
[18] = Intraperitoneal PK, plasma and brain; assay type: in vivo, NOD/SCID mice; conditions: intraperitoneal injection 20 mg/kg, mice
[19] = Oral PK of solution formulation; assay type: in vivo; conditions: rat
[20] = Oral and intravenous PK of suspension; assay type: in vivo, rodents; conditions: administered as a suspension
[21] = tested on: SUMO1; experiment: Western and dot blots for SUMO1 in HCT116 cells; assay type: cell-based, human; conditions: gradually over about 24 hours
[22] = tested on: cancer cells; experiment: Caspase-3/7 activation and caspase-3 cleavage; assay type: cell-based, human; conditions: caspase-3 cleavage
[23] = tested on: SUMO1; experiment: Western blots for SUMO1 in normal lung epithelial cells; assay type: cell-based, human; conditions: 72 hours; compared to lung cancer cells

## O=C(Nc1ccc(Cl)c([N+](=O)[O-])c1)Nc1nc2ccccc2s1 [CPD1, 1-(1,3-benzothiazol-2-yl)-3-(4-chloro-3-nitrophenyl)urea]
[1]
  effect on SUMO1 and SUMO2/3 protein amounts: reduced the conjugated and unconjugated forms and total amounts of SUMO1 but not SUMO2/3 protein
[2]
  effect on SUMO1 mRNA expression: no effects
[3]
  effect on in vitro SUMO conjugation: no effects
[4]
  effect on SUMO1 protein in xenograft tissues: markedly reduced both the total amounts and conjugate SUMO1 but not SUMO2/3 protein
[5]
  xenograft growth: suppressed xenograft growth
[6]
  survival of brain xenograft-bearing mice: increased the survival
[7]
  progression of PDXs: effectively suppressed the progression

## N#Cc1ccc2nc(NC(=O)Nc3cccc(Cl)c3)sc2c1 [HB007]
[8]
  growth inhibition of matched normal cells: much lower growth inhibition effects
[9]
  competitive inhibition of binding of cellular CAPRIN1 to HB007-linked biotin: competitively blocked
[10]
  inhibition of CYP enzymes: did not inhibit
[11]
  activity against kinases, ion channels, NHRs, enzymes: no activity
[12]
  activity against human ether-a-go-go–related gene: no activity
[13]
  inhibition of adenosine A2A: some inhibition
[14]
  inhibition of histamine H2: some inhibition
[15]
  inhibition of 5-HT2B: some inhibition
[16]
  metabolic stability in mouse liver microsomes: sufficiently stable
[17]
  metabolic stability in human liver microsomes: sufficiently stable
[18]
  brain-to-plasma partition coefficient: 0.57
[19]
  oral bioavailability in plasma: up to 82%
[20]
  plasma concentrations after oral and intravenous administration: low plasma concentrations
[21]
  effect on SUMO1 and SUMO2/3 protein amounts: reduced the conjugated and total amounts of SUMO1 but not SUMO2/3 protein
[22]
  induction of apoptotic cell death: did not induce apoptotic cell death
[23]
  effect on conjugated and total SUMO1 in normal lung epithelial cells: no effects
[4]
  effect on SUMO1 protein in xenograft tissues: markedly reduced both the total amounts and conjugate SUMO1 but not SUMO2/3 protein
[5]
  xenograft growth: suppressed xenograft growth
[7]; BRCA1 mutant breast carcinoma and primary or metastatic colon carcinoma PDX
  survival of PDX mice: increased the survival
[7]
  progression of PDXs: effectively suppressed the progression

## O=C(Nc1ccc(Cl)cc1)Nc1nc2ccccc2s1 [compound 789482, reference compound]
[9]
  competitive inhibition of binding of cellular CAPRIN1 to HB007-linked biotin: failed to competitively inhibit

## O=[N+]([O-])c1cccc2nc(Nc3ccc(Cl)cc3)sc12 [compound 11208948, reference compound]
[9]
  competitive inhibition of binding of cellular CAPRIN1 to HB007-linked biotin: failed to competitively inhibit
